Measured values as given in article PMC9774648, “Synthesis, Physicochemical Properties and Molecular Docking of New Benzothiazole Derivatives as Antimicrobial Agents Targeting DHPS Enzyme” (Antibiotics, 2022).
In brackets after ≈: the same amount, converted by molar mass. Where two headings read alike, the source gives them in different places.

Key:
S. aureus (ATCC: 6538) = test: Agar well diffusion, inhibition zone, S. aureus; assay type: cell-based; conditions: agar well diffusion, 15 mg/mL, 100 μL per well, 37 °C 24 h, mean ± SD, triplicate; for zone of inhibition at 15000 µg/mL: Staphylococcus aureus, read-out: Diameter of the Inhibition Zone, S. aureus
S. mutans (ATCC: 25175) = test: Agar well diffusion, inhibition zone, S. mutans; assay type: cell-based; conditions: agar well diffusion, 15 mg/mL, 100 μL per well, 37 °C 24 h, mean ± SD, triplicate; for zone of inhibition at 15000 µg/mL: Streptococcus mutans, read-out: Diameter of the Inhibition Zone, S. mutans
[1] = tested on: K. pneumonia (ATCC: 4415); test: Agar well diffusion, inhibition zone, K. pneumonia; assay type: cell-based; conditions: for zone of inhibition at 15000 µg/mL: Klebsiella pneumoniae, read-out: Diameter of the Inhibition Zone, K. pneumonia
[2] = tested on: P. aeruginosa (ATCC: 27853); test: Agar well diffusion, inhibition zone, P. aeruginosa; assay type: cell-based; conditions: for zone of inhibition at 15000 µg/mL: Pseudomonas aeruginosa, read-out: Diameter of the Inhibition Zone, P. aeruginosa
E. coli (ATCC: 3008) = test: Agar well diffusion, inhibition zone, E. coli; assay type: cell-based; conditions: for zone of inhibition at 15000 µg/mL: Escherichia coli, read-out: Diameter of the Inhibition Zone, E. coli
S. aureus = test: MIC, twofold serial dilution, S. aureus; assay type: cell-based; conditions: Staphylococcus aureus; twofold serial dilution in broth, 37 °C 16–20 h; read-out: The Minimum Inhibitory Concentration (MIC), S. aureus
Method: The new synthetic compounds, 6a–c, 12a–c, 14a–c, 16a–c and 19a–e, were tested in vitro to evaluate antibacterial activities against Gram-negative and Gram-positive bacteria, such as E. coli (ATCC: 3008), K. pneumonia (ATCC: 4415) and P. aeruginosa (ATCC: 27853), as an example for Gram-negative bacteria, as well as S. aureus (ATCC: 6538) and S. mutans (ATCC: 25175) for Gram-positive bacteria. The antifungal activities were evaluated also for the novel compounds in vitro against C. albicans (ATCC: 10231). The antibacterial and antifungal activities were determined by the agar-diffusion method using gentamicin, ampicillin and sulfadiazine, example of sulfa drug, as standard drugs against Gram-negative and Gram-positive, while nystatin was used as standard drug against the fungal strain. Table 1 summarizes the results for all tested compounds as the average diameter of inhibition zones of microbial growth around the discs in mm ± SD.
For each strain, three to five isolated colonies were selected from the fresh agar plate and were transferred into a tube containing 3–4 mL of sterile broth medium. The bacterial suspension was mixed well and incubated at 35–37 °C for 2–6 h. The turbidity of the bacterial suspension should be equal to or greater than the turbidity of a McFarland Standard 0.5. After that, 1 mg of the tested compound (antimicrobial agent) was dissolved in 1 mL DMSO and two-fold serial dilution was done using broth medium. A fixed volume of the prepared bacterial inoculum was added to each tube and incubated for at 37 °C 16–20 h. The MIC is defined as the lowest concentration of the antimicrobial agent that inhibits visible growth of the tested isolate as observed with the unaided eye.

S. mutans = test: MIC, twofold serial dilution, S. mutans; assay type: cell-based; conditions: Streptococcus mutans; twofold serial dilution in broth, 37 °C 16–20 h; read-out: The Minimum Inhibitory Concentration (MIC), S. mutans
K. pneumonia = test: MIC, twofold serial dilution, K. pneumonia; assay type: cell-based; conditions: Klebsiella pneumoniae, read-out: The Minimum Inhibitory Concentration (MIC), K. pneumonia
P. aeruginosa = test: MIC, twofold serial dilution, P. aeruginosa; assay type: cell-based; conditions: Pseudomonas aeruginosa, read-out: The Minimum Inhibitory Concentration (MIC), P. aeruginosa
[3] = biological target: DHPS enzyme (dihydropteroate synthase) (Bacillus anthracis, UniProt Q81VW8); test: biochemical; conditions: for inhibition at 0.1 µg/mL / inhibition at 1 µg/mL / inhibition at 10 µg/mL / inhibition at 100 µg/mL: read-out: Inhibition % against DHPS enzyme
Sequence of DHPS enzyme (dihydropteroate synthase) (Q81VW8 1-280): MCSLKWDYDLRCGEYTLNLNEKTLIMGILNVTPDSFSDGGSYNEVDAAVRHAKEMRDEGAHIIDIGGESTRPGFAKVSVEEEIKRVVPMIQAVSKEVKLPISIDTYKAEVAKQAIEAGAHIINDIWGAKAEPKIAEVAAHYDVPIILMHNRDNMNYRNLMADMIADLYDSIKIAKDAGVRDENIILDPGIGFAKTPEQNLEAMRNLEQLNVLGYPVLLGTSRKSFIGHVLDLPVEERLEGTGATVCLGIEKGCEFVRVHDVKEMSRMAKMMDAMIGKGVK

[4] = tested on: C. albicans (ATCC: 10231); test: Agar well diffusion, inhibition zone, C. albicans; assay type: cell-based; conditions: Candida albicans, 15 mg/mL, 100 μL per well, mean ± SD, triplicate, read-out: Diameter of the Inhibition Zone, C. albicans
[5] = agar well diffusion, 15 mg/mL, 100 μL per well, 37 °C 24 h, mean ± SD, triplicate
[6] = twofold serial dilution in broth, 37 °C 16–20 h

Structure (SMILES) | zone of inhibition at 15000 µg/mL (S. aureus (ATCC: 6538)) | zone of inhibition at 15000 µg/mL (S. mutans (ATCC: 25175)) | zone of inhibition at 15000 µg/mL [1, 5] | zone of inhibition at 15000 µg/mL [2, 5] | MIC (S. aureus) | MIC (S. mutans) | MIC (K. pneumonia; [6]) | MIC (P. aeruginosa; [6]) | IC50 [3] | Diameter of the Inhibition Zone, E. coli (E. coli (ATCC: 3008); [5]) | inhibition at 0.1 µg/mL ([3]; 0.1 μg/mL) | inhibition at 1 µg/mL ([3]; 1 μg/mL) | inhibition at 10 µg/mL ([3]; 10 μg/mL) | inhibition at 100 µg/mL ([3]; 100 μg/mL) | melting point | Diameter of the Inhibition Zone, K. pneumonia [1, 5] | zone of inhibition at 15000 µg/mL [4] | other results
Nc1ccc(S(=O)(=O)Nc2ncccn2)cc1 [Sulfadiazine, reference compound] | 21.5 ± 0.6 mm | 22.2 ± 1.1 mm | 15.9 ± 0.9 mm | 20.6 ± 1.4 mm | 2000 µM (≈ 500 µg/mL) | 499 µM (≈ 125 µg/mL) | 999 µM (≈ 250 µg/mL) | 999 µM (≈ 250 µg/mL) | 28.5 µM |  |  |  |  |  |  |  |  | zone of inhibition at 15000 µg/mL (E. coli (ATCC: 3008); [5]): 21.4 ± 0.4 mm; inhibition at 0.1 µg/mL [3]: 11%; inhibition at 1 µg/mL [3]: 26%; inhibition at 10 µg/mL [3]: 56%; inhibition at 100 µg/mL [3]: 75%
Cc1ccc(-c2[nH][nH]c(=O)c2-c2nc3ccccc3s2)cc1 [Compound 16c, 4-(Benzo[d]thiazole-2-yl)-5-(p-tolyl)-1H-pyrazol-3(2H)-one] | 40.3 ± 0.6 mm | 31.3 ± 0.6 mm | 24.3 ± 0.6 mm |  | 25 µM (≈ 7.68 µg/mL) | 203 µM (≈ 62.4 µg/mL) | 813 µM (≈ 250 µg/mL) |  | 35.9 µM | - | 13% | 31% | 48% | 68% | 239 to 241 °C |  |  | Diameter of the Inhibition Zone, P. aeruginosa [2, 5]: -
CNC(C)C1CCC(N)C(OC2C(N)CC(N)C(OC3OCC(C)(O)C(NC)C3O)C2O)O1 (stereo not drawn) [Gentamicin, reference compound] |  |  |  |  |  |  |  |  |  |  |  |  |  |  |  |  |  | zone of inhibition at 15000 µg/mL ([1]; 24 h): 25 ± 0.5 mm; zone of inhibition at 15000 µg/mL ([2]; 24 h): 30 ± 0.5 mm; zone of inhibition at 15000 µg/mL (E. coli (ATCC: 3008); 24 h): 27 ± 0.5 mm; MIC (K. pneumonia): 65 µM (≈ 31 µg/mL); MIC (P. aeruginosa): 131 µM (≈ 62.6 µg/mL)
Cc1ccc(/C=C(/C(=O)NNS(=O)(=O)c2ccc(C)cc2)c2nc3ccccc3s2)cc1 [Compound 14c, N-(2-(Benzo[d]thiazole-2-yl)-3-(p-tolyl)acryloyl)-4-methylbenzene-sulfonohydrazide] | 30.3 ± 0.6 mm | 20.3 ± 0.6 mm |  |  | 135 µM (≈ 62.6 µg/mL) | 539 µM (≈ 250 µg/mL) |  |  | 56.4 µM | - | 8.6% | 21% | 46% | 59% | 195 to 196.5 °C | - | 11.3 ± 0.5 mm | Diameter of the Inhibition Zone, P. aeruginosa [2, 5]: -
Cc1ccc(NN=C(C(=O)NNS(=O)(=O)c2ccccc2)c2nc3ccccc3s2)cc1 [Compound 19c, N′-(2-(Benzo[d]thiazol-2-yl)-2-(2-(4-methylphenyl)hydrazono)acetyl)benzene-sulfonohydrazide] | 11 ± 1 mm |  |  | 16 ± 1 mm |  |  |  | 2150 µM (≈ 1000 µg/mL) |  | - |  |  |  |  | 262 to 263 °C | - | 11.6 ± 0.5 mm | Diameter of the Inhibition Zone, S. mutans (S. mutans (ATCC: 25175)): -
Cc1ccc(S(=O)(=O)NNC(=O)/C(=N/Nc2ccc(Cl)cc2)c2nc3ccccc3s2)cc1 [Compound 19d, N′-(2-(Benzo[d]thiazol-2-yl)-2-(2-(4-chlorophenyl)hydrazono)acetyl)-4-methylbenzenesulfono-hydrazide] |  |  |  | 21.6 ± 0.6 mm |  |  |  | 500 µM (≈ 250 µg/mL) |  | - |  |  |  |  | 280 to 281 °C | - |  | Diameter of the Inhibition Zone, S. aureus (S. aureus (ATCC: 6538)): -; Diameter of the Inhibition Zone, S. mutans (S. mutans (ATCC: 25175)): -
O=c1[nH][nH]c(-c2ccc(F)cc2)c1-c1nc2ccccc2s1 [Compound 16a, 4-(Benzo[d]thiazole-2-yl)-5-(4-florophenyl)-1H-pyrazol-3(2H)-one] | 15.3 ± 0.5 mm | 25 ± 0.6 mm | 17.3 ± 0.6 mm | 16.6 ± 0.5 mm | 1610 µM (≈ 500 µg/mL) | 200 µM (≈ 62.3 µg/mL) | 803 µM (≈ 250 µg/mL) | 1610 µM (≈ 500 µg/mL) | 35.9 µM | - | 12% | 26% | 49% | 70% | 238 to 240 °C |  | 12.3 ± 0.5 mm | 
O=c1[nH][nH]c(-c2ccc(Cl)cc2)c1-c1nc2ccccc2s1 [Compound 16b, 4-(Benzo[d]thiazole-2-yl)-5-(4-chlorophenyl)-1H-pyrazol-3(2H)-one] | 35.3 ± 0.6 mm | 24.6 ± 0.6 mm |  | 25.6 ± 0.6 mm | 191 µM (≈ 62.6 µg/mL) | 191 µM (≈ 62.6 µg/mL) |  | 762 µM (≈ 250 µg/mL) | 23.9 µM | - | 16% | 31% | 52% | 72% | 236 to 237.5 °C | - | 10.6 ± 0.5 mm | 
Cc1ccc(S(=O)(=O)NNC(=O)/C(=C/c2ccc(Cl)cc2)c2nc3ccccc3s2)cc1 [Compound 14b] | 31.6 ± 0.6 mm | 21.6 ± 0.6 mm | 15.6 ± 0.6 mm | 24.3 ± 0.6 mm | 129 µM (≈ 62.4 µg/mL) | 258 µM (≈ 125 µg/mL) | 1030 µM (≈ 500 µg/mL) | 517 µM (≈ 250 µg/mL) | 34.6 µM | - | 12% | 24% | 47% | 65% | 188 to 189 °C |  |  | 
